Species on record: Rattus norvegicus
Experiment: Open TG-GATES - Regimen: Single
Type: toxicity, organism-based, Sprague-Dawley
Design: regimen Single, gender Male, age 6 weeks
Details: in vivo, po, route gavage; for Bas / Eos / Fbg / Lym / Mono / RBC / Ret / WBC: tissue Blood; for KIDNEY_L / KIDNEY_R / KIDNEY_TOTAL: tissue Kidney; for ALP / CRE / DBIL / IP / K / LDH / Na / PL / RALB / TBIL / TG / TP / gamma-GTP / GLC: tissue Plasma
[1] = 0 mg/kg, 3 h, dose level Control
[2] = 0 mg/kg, 6 h, dose level Control
[3] = 0 mg/kg, 9 h, dose level Control
[4] = 0 mg/kg, 24 h, dose level Control

## C=C[C@H]1C[N@@]2CC[C@H]1C[C@@H]2[C@@H](O)c1ccnc2ccc(OC)cc12 [QUINIDINE]
[1]
  TERMINAL_BW: 212.2 g
  Bas: 0%
  Eos: 0.8%
  Fbg: 313.6 mg/dL
  Lym: 78.2%
  Mono: 1.8%
  RBC: 615 x10_4/ul
  Ret: 7.3%
  WBC: 86.7 x10_2/uL
  KIDNEY_L: 0.9 g
  KIDNEY_R: 1 g
  KIDNEY_TOTAL: 1.9 g
  ALP: 1497.8 IU/L
  CRE: 0.2 mg/dL
  DBIL: 0 mg/dL
  IP: 8.8 mg/dL
  K: 3.9 meq/L
  LDH: 153 IU/L
  Na: 143.8 meq/L
  PL: 136 mg/dL
  RALB: 3 g/dL
  TBIL: 0.018 mg/dL
  TG: 60.6 mg/dL
  TP: 5.4 g/dL
  gamma-GTP: 1.8 IU/L
[2]
  TERMINAL_BW: 213.3 g
  Bas: 0%
  Eos: 0.6%
  Fbg: 318.2 mg/dL
  Lym: 81.4%
  Mono: 2.2%
  RBC: 641 x10_4/ul
  Ret: 7%
  WBC: 100 x10_2/uL
  KIDNEY_L: 1 g
  KIDNEY_R: 1 g
  KIDNEY_TOTAL: 1.9 g
  ALP: 1503.8 IU/L
  CRE: 0.2 mg/dL
  DBIL: 0 mg/dL
  IP: 9.3 mg/dL
  K: 4.2 meq/L
  LDH: 187 IU/L
  Na: 143 meq/L
  PL: 134.8 mg/dL
  RALB: 3.1 g/dL
  TBIL: 0.018 mg/dL
  TG: 73.6 mg/dL
  TP: 5.4 g/dL
  gamma-GTP: 1.2 IU/L
[3]
  TERMINAL_BW: 212.8 g
  Bas: 0%
  Eos: 0.4%
  Fbg: 288.2 mg/dL
  Lym: 79.4%
  Mono: 2%
  RBC: 614.8 x10_4/ul
  Ret: 6.9%
  WBC: 84.8 x10_2/uL
  KIDNEY_L: 1 g
  KIDNEY_R: 1 g
  KIDNEY_TOTAL: 1.9 g
  ALP: 1297.8 IU/L
  CRE: 0.2 mg/dL
  DBIL: 0 mg/dL
  GLC: 174.2 mg/dL
  IP: 9.6 mg/dL
  K: 4.4 meq/L
  LDH: 136.6 IU/L
  Na: 143.8 meq/L
  PL: 131.6 mg/dL
  RALB: 3 g/dL
  TBIL: 0.022 mg/dL
  TG: 66 mg/dL
  TP: 5.5 g/dL
  gamma-GTP: 1.6 IU/L
[4]
  TERMINAL_BW: 227.4 g
  Bas: 0%
  Eos: 0.8%
  Fbg: 298.2 mg/dL
  Lym: 78.6%
  Mono: 1.8%
  RBC: 618.4 x10_4/ul
  Ret: 6.9%
  WBC: 90.9 x10_2/uL
  KIDNEY_L: 1 g
  KIDNEY_R: 1 g
  KIDNEY_TOTAL: 2 g
  ALP: 1610.6 IU/L
  CRE: 0.1 mg/dL
  DBIL: 0 mg/dL
  IP: 7.9 mg/dL
  K: 4.3 meq/L
  LDH: 202.2 IU/L
  Na: 141.6 meq/L
  PL: 149.8 mg/dL
  RALB: 3 g/dL
  TBIL: 0.008 mg/dL
  TP: 5.7 g/dL
  gamma-GTP: 1.6 IU/L
20 mg/kg, 3 h, dose level Low
  TERMINAL_BW: 218.9 g
  Bas: 0%
  Eos: 0.2%
  Fbg: 293.2 mg/dL
  Lym: 81%
  Mono: 2%
  RBC: 600.6 x10_4/ul
  Ret: 7.5%
  WBC: 73.2 x10_2/uL
  KIDNEY_L: 1 g
  KIDNEY_R: 1 g
  KIDNEY_TOTAL: 2 g
  ALP: 1446.4 IU/L
  CRE: 0.2 mg/dL
  DBIL: 0 mg/dL
  GLC: 178.4 mg/dL
  IP: 8.7 mg/dL
  K: 3.7 meq/L
  Na: 142 meq/L
  PL: 145 mg/dL
  RALB: 3 g/dL
  TBIL: 0.022 mg/dL
  TG: 68.2 mg/dL
  TP: 5.4 g/dL
  gamma-GTP: 1.8 IU/L
20 mg/kg, 6 h, dose level Low
  TERMINAL_BW: 214.6 g
  Bas: 0%
  Eos: 0.8%
  Fbg: 294.2 mg/dL
  Lym: 78%
  Mono: 2.6%
  RBC: 617.4 x10_4/ul
  Ret: 7.3%
  WBC: 80 x10_2/uL
  KIDNEY_L: 0.9 g
  KIDNEY_R: 1 g
  KIDNEY_TOTAL: 1.9 g
  ALP: 1616.2 IU/L
  CRE: 0.2 mg/dL
  DBIL: 0.004 mg/dL
  IP: 9.4 mg/dL
  K: 4 meq/L
  Na: 142.8 meq/L
  PL: 140.6 mg/dL
  RALB: 3 g/dL
  TBIL: 0.034 mg/dL
  TG: 55.6 mg/dL
  TP: 5.4 g/dL
  gamma-GTP: 1.2 IU/L
20 mg/kg, 9 h, dose level Low
  TERMINAL_BW: 213.3 g
  Bas: 0%
  Eos: 0.8%
  Fbg: 302.6 mg/dL
  Lym: 77.2%
  Mono: 2.2%
  RBC: 642 x10_4/ul
  Ret: 6.9%
  WBC: 88 x10_2/uL
  KIDNEY_L: 1 g
  KIDNEY_R: 1 g
  KIDNEY_TOTAL: 2 g
  ALP: 1487 IU/L
  CRE: 0.2 mg/dL
  DBIL: 0 mg/dL
  IP: 9.3 mg/dL
  K: 4.4 meq/L
  LDH: 133.8 IU/L
  Na: 143.8 meq/L
  PL: 136.8 mg/dL
  RALB: 3 g/dL
  TBIL: 0.02 mg/dL
  TG: 83.4 mg/dL
  TP: 5.5 g/dL
  gamma-GTP: 1.6 IU/L
20 mg/kg, 24 h, dose level Low
  TERMINAL_BW: 228.7 g
  Bas: 0%
  Eos: 1%
  Fbg: 321.4 mg/dL
  Lym: 82.4%
  Mono: 2.4%
  RBC: 632.8 x10_4/ul
  Ret: 6.7%
  WBC: 97.6 x10_2/uL
  KIDNEY_L: 1 g
  KIDNEY_R: 1 g
  KIDNEY_TOTAL: 1.9 g
  ALP: 1563 IU/L
  CRE: 0.1 mg/dL
  DBIL: 0.002 mg/dL
  IP: 7.7 mg/dL
  K: 4 meq/L
  Na: 140.4 meq/L
  RALB: 3.1 g/dL
  TBIL: 0 mg/dL
  TG: 147.8 mg/dL
  TP: 5.8 g/dL
  gamma-GTP: 1.8 IU/L
60 mg/kg, 3 h, dose level Middle
  TERMINAL_BW: 222.4 g

From ChEMBL document CHEMBL3885861, “Open TG-GATES”
